In PMC9693575, “Isopropyl Amino Acid Esters Ionic Liquids as Vehicles for Non-Steroidal Anti-Inflammatory Drugs in Potential Topical Drug Delivery Systems with Antimicrobial Activity” (International Journal of Molecular Sciences, 2022):
Like-named read-outs stand apart in the source and are kept apart here.

How the values were obtained:
[1] = tested on: Staphylococcus epidermidis; assay: Disc diffusion antimicrobial susceptibility test, Staphylococcus epidermidis; assay type: cell-based; set-up: key to Inhibition diameter: -: no growth of the organism
Experimental: (§1) The plates were incubated for 24 h at 37 °C.

Escherichia coli = assay: Disc diffusion antimicrobial susceptibility test, Escherichia coli; assay type: cell-based; set-up: key to Inhibition diameter: -: no growth of the organism
Experimental: as §1

[2] = Thermogravimetric analysis (thermal stability); conditions: for TDTGmax, maximum decomposition temperature: DTG, air atmosphere, 10 °C min−1
Experimental: The thermal stabilities of the obtained NSAIDs isopropyl ester amino acid salts were investigated. […] The beginning of thermal degradation was evaluated based on the value of onset of the TG curve, which occurs in the first phase of the process. […]
Thermogravimetric analysis (TG)
Thermogravimetric analysis was carried out using Netzsch Proteus Thermal Analy- […]
Samples of 5–8 mg were loaded in Al2O3 […]
ment was performed in an air atmosphere (25 cm3min−1) with nitrogen flow (10 cm3min−1) […]
Differential scanning calorimetry (DSC)
Phase transformation temperatures were determined on a PerkinElmer DSC-7 (Rot-gau, Germany). The samples of 3–5 mg were loaded on the aluminum pan with a crimped lid. Measurements were carried out in a nitrogen atmosphere (20 cm3 min-1). The rate of heating/cooling was 5°C min-1. […]
tained for 30 min inside the furnace, then cooled to 0°C to condition the sample and the crucible. After that, heating was conducted to the specified temperature, followed by cool-ing. Unless otherwise stated, two complete cycles of heating and cooling were performed.
The specified maximum temperature was individual for each compound, determined from TG analysis, and it was at least 10°C lower than the onset decomposition tempera-ture. Temperatures reported from DSC data are curve peaks, the melting points being endothermic upon heating and crystallization point being exothermic upon cooling. Lead, indium, tin, and zinc were used as standards to calibrate the temperature. Indium was used for enthalpy measurement calibration. […]

Micrococcus Luteus = assay: Disc diffusion antimicrobial susceptibility test, Micrococcus luteus; assay type: cell-based; set-up: key to Inhibition diameter: -: no growth of the organism; conditions: for zone of inhibition at 25000 µg/mL / zone of inhibition at 50000 µg/mL / zone of inhibition at 100000 µg/mL / zone of inhibition at 200000 µg/mL / zone of inhibition at 400000 µg/mL / zone of inhibition at 600000 µg/mL / zone of inhibition at 800000 µg/mL: Micrococcus luteus, 24 h, read-out: Inhibition diameter
[3] = pKa / pKB by potentiometric acid-base titration and formation constant log(KS); conditions: calculated from pKA of acid and pKB of base
Experimental: Determination of formation constant pKs
Zabrze, Poland). For the measurement of pKA acids, 0.1 M NaOH was used. In order to
ester hydrochloride, HCl aqueous solution, was added in an amount that allowed reach-
After that, an acid-base titration was made out by adding dropwise 5 mM

[4] = DTG; cited from earlier work
[5] = solution transferred to disc 25 mg cm^−3
[6] = solution transferred to disc 50 mg cm^−3
[7] = solution transferred to disc 100 mg cm^−3
[8] = solution transferred to disc 200 mg cm^−3
[9] = solution transferred to disc 400 mg cm^−3
[10] = solution transferred to disc 600 mg cm^−3
[11] = solution transferred to disc 1000 mg cm^−3
[12] = solution transferred to disc 800 mg cm^−3

Structure (SMILES)	Inhibition diameter (Escherichia coli; [5])	Inhibition diameter (Escherichia coli; [6])	Inhibition diameter (Escherichia coli; [7])	Inhibition diameter (Escherichia coli; [8])	Inhibition diameter (Escherichia coli; [9])	Inhibition diameter (Escherichia coli; [10])	Inhibition diameter (Escherichia coli; [11])	TTGonset, the onset of the thermal degradation [2] [°C]	TDTGmax, maximum decomposition temperature [2] [°C]	Inhibition diameter [1, 5]	Inhibition diameter [1, 6]	Inhibition diameter [1, 7]	Inhibition diameter [1, 8]	Inhibition diameter [1, 9]	Inhibition diameter [1, 10]	Inhibition diameter [1, 12]	Inhibition diameter [1, 11]	Inhibition diameter (Micrococcus Luteus; [5])	Inhibition diameter (Micrococcus Luteus; [6])	Inhibition diameter (Micrococcus Luteus; [7])	other results
CC(C)Cc1ccc(C(C)C(=O)O)cc1 (racemic) [IBU, (R,S)-ibuprofen, reference compound]	-	-	-	-	-	-	-	186.2	218.8												zone of inhibition at 25000 µg/mL ([1]; Staphylococcus epidermidis, 24 h, solution transferred to disc 25 mg cm^−3, read-out: Inhibition diameter): 10.8 ± 0.3 mm; zone of inhibition at 50000 µg/mL ([1]; Staphylococcus epidermidis, 24 h, solution transferred to disc 50 mg cm^−3, read-out: Inhibition diameter): 11.5 ± 0.3 mm; zone of inhibition at 100000 µg/mL ([1]; Staphylococcus epidermidis, 24 h, solution transferred to disc 100 mg cm^−3, read-out: Inhibition diameter): 14.9 ± 0.3 mm; zone of inhibition at 200000 µg/mL ([1]; Staphylococcus epidermidis, 24 h, solution transferred to disc 200 mg cm^−3, read-out: Inhibition diameter): 15.3 ± 0.3 mm; zone of inhibition at 400000 µg/mL ([1]; Staphylococcus epidermidis, 24 h, solution transferred to disc 400 mg cm^−3, read-out: Inhibition diameter): 16.4 ± 0.2 mm; zone of inhibition at 600000 µg/mL ([1]; Staphylococcus epidermidis, 24 h, solution transferred to disc 600 mg cm^−3, read-out: Inhibition diameter): 17.6 ± 0.2 mm; zone of inhibition at 800000 µg/mL ([1]; Staphylococcus epidermidis, 24 h, solution transferred to disc 800 mg cm^−3, read-out: Inhibition diameter): 18.6 ± 0.2 mm; zone of inhibition at 25000 µg/mL (Micrococcus Luteus; [5]): 8.6 ± 0.3 mm; zone of inhibition at 50000 µg/mL (Micrococcus Luteus; [6]): 9.4 ± 0.2 mm; zone of inhibition at 100000 µg/mL (Micrococcus Luteus; [7]): 9.7 ± 0.2 mm; zone of inhibition at 200000 µg/mL (Micrococcus Luteus; [8]): 10.2 ± 0.1 mm; zone of inhibition at 400000 µg/mL (Micrococcus Luteus; [9]): 10.6 ± 0.1 mm; zone of inhibition at 600000 µg/mL (Micrococcus Luteus; [10]): 11.5 ± 0.2 mm; zone of inhibition at 800000 µg/mL (Micrococcus Luteus; [12]): 12.7 ± 0.2 mm
COc1ccc2cc([C@H](C)C(=O)O)ccc2c1 [NAP, S-(+)-naproxen, reference compound]	-	-	-	-	-	-	-	224.5	284.0	-	-	-	-	-	-	-	-				zone of inhibition at 25000 µg/mL (Micrococcus Luteus; [5]): 6.2 ± 0.1 mm; zone of inhibition at 50000 µg/mL (Micrococcus Luteus; [6]): 6.4 ± 0.1 mm; zone of inhibition at 100000 µg/mL (Micrococcus Luteus; [7]): 6.7 ± 0.1 mm; zone of inhibition at 200000 µg/mL (Micrococcus Luteus; [8]): 6.8 ± 0.1 mm; zone of inhibition at 400000 µg/mL (Micrococcus Luteus; [9]): 7.3 ± 0.2 mm; zone of inhibition at 600000 µg/mL (Micrococcus Luteus; [10]): 7.6 ± 0.2 mm; zone of inhibition at 800000 µg/mL (Micrococcus Luteus; [12]): 8.5 ± 0.2 mm
CC[C@H](C)[C@H](N)C(=O)OC(C)C.COc1ccc2cc([C@H](C)C(=O)O)ccc2c1 [[L-IleOiPr][NAP], L-isoleucine isopropyl ester naproxenate]	-	-	-	-	-	-	-	127.0	287.4	-	-	-	-	-	12.0 ± 0.3 mm	12.4 ± 0.2 mm	13.5 ± 0.3 mm	6.4 ± 0.1 mm	6.7 ± 0.1 mm	7.0 ± 0.1 mm	Log(KS) formation constant [3]: 6.11; Inhibition diameter (Micrococcus Luteus; [8]): 7.3 ± 0.1 mm; Inhibition diameter (Micrococcus Luteus; [9]): 7.5 ± 0.2 mm; Inhibition diameter (Micrococcus Luteus; [10]): 8.1 ± 0.6 mm; Inhibition diameter (Micrococcus Luteus; [12]): 8.7 ± 0.1 mm; Inhibition diameter (Micrococcus Luteus; [11]): 9.5 ± 0.1 mm
COc1ccc2cc([C@H](C)C(=O)O)ccc2c1.CSCC[C@H](N)C(=O)OC(C)C [[L-MetOiPr][NAP], L-methionine isopropyl ester naproxenate]	-	-	-	6.4 ± 0.3 mm	7.1 ± 0.1 mm	7.3 ± 0.2 mm	7.7 ± 0.2 mm	149.6	293.2	-	-	-	-	-	-	-	7.5 ± 0.3 mm	-	-	-	Inhibition diameter (Micrococcus Luteus; [8]): -; Inhibition diameter (Micrococcus Luteus; [9]): 6.4 ± 0.1 mm; Inhibition diameter (Micrococcus Luteus; [10]): 7.1 ± 0.2 mm; Inhibition diameter (Micrococcus Luteus; [12]): 7.5 ± 0.1 mm; Inhibition diameter (Micrococcus Luteus; [11]): 7.8 ± 0.2 mm
CC(C)Cc1ccc(C(C)C(=O)O)cc1.CC(C)OC(=O)[C@@H](N)[C@@H](C)O [[L-ThrOiPr][IBU], L-threonine isopropyl ester ibuprofenate]	-	-	-	-	-	-	-			7.5 ± 0.2 mm	10.5 ± 0.2 mm	15.4 ± 0.1 mm	16.9 ± 0.2 mm	17.5 ± 0.2 mm	18.3 ± 0.2 mm	19.8 ± 1.4 mm	23.2 ± 0.1 mm	7.3 ± 0.2 mm	10.4 ± 0.2 mm	15.5 ± 0.2 mm	Log(KS) formation constant [3]: 6.47; TDTGmax, maximum decomposition temperature [4]: 209.9 [50] °C; Inhibition diameter (Micrococcus Luteus; [8]): 16.3 ± 0.1 mm; Inhibition diameter (Micrococcus Luteus; [9]): 17.0 ± 0.2 mm; Inhibition diameter (Micrococcus Luteus; [10]): 17.5 ± 0.1 mm; Inhibition diameter (Micrococcus Luteus; [12]): 18.2 ± 0.2 mm; Inhibition diameter (Micrococcus Luteus; [11]): 19.3 ± 0.2 mm
CC(C)OC(=O)[C@@H](N)[C@@H](C)O.COc1ccc2cc([C@H](C)C(=O)O)ccc2c1 [[L-ThrOiPr][NAP], L-threonine isopropyl ester naproxenate]	-	-	-	-	-	-	-	145.8	295.3	-	-	-	-	-	-	-	-	6.2 ± 0.1 mm	6.6 ± 0.1 mm	6.9 ± 0.1 mm	inhibition zone (in words) ([1]; S. epidermidis, tested concentrations): no inhibition zone was observed; Inhibition diameter (Micrococcus Luteus; [8]): 7.6 ± 0.1 mm; Inhibition diameter (Micrococcus Luteus; [9]): 8.5 ± 0.1 mm; Inhibition diameter (Micrococcus Luteus; [10]): 8.8 ± 0.2 mm; Inhibition diameter (Micrococcus Luteus; [12]): 9.6 ± 0.1 mm; Inhibition diameter (Micrococcus Luteus; [11]): 10.8 ± 0.5 mm
CC(C)OC(=O)[C@@H](N)C(C)C.COc1ccc2cc([C@H](C)C(=O)O)ccc2c1 [[L-ValOiPr][NAP]]	-	-	-	-	-	-	-			-	-	-	-	-	-	6.6 ± 0.3 mm	7.4 ± 0.1 mm	6.2 ± 0.1 mm	6.3 ± 0.1 mm	6.4 ± 0.1 mm	Log(KS) formation constant [3]: 5.89; TDTGmax, maximum decomposition temperature [4]: 275.8 [48] °C; Inhibition diameter (Micrococcus Luteus; [8]): 7.2 ± 0.1 mm; Inhibition diameter (Micrococcus Luteus; [9]): 7.3 ± 0.1 mm; Inhibition diameter (Micrococcus Luteus; [10]): 7.4 ± 0.2 mm; Inhibition diameter (Micrococcus Luteus; [12]): 8.2 ± 0.2 mm; Inhibition diameter (Micrococcus Luteus; [11]): 8.6 ± 0.2 mm
